Measurements: EP3670512A1, “DIAZABICYCLOOCTANONES AS INHIBITORS OF SERINE BETA-LACTAMASES” (Antabio SAS, priority 2018, dated 2020)
In brackets after ≈: the same amount, converted by molar mass.

How the values were obtained:
[1] = system: NTBC096.1 (K. pneumoniae strain expressing OXA-181 and SHV-11); assay: Meropenem potentiation, broth micro-dilution MIC, strain NTBC096.1; format: cell-based
CTX-M15 = CTX-M15 (Escherichia coli, UniProt Q9EXV5); assay: In vitro enzyme inhibition assay (nitrocefin hydrolysis), CTX-M15; format: biochemical; conditions: nitrocefin 50µM, 10mM HEPES pH 7.5; numeric value
Procedure: (§1) Compound dilution was performed in DMSO.

[2] = system: NTBC091.1 (E. coli strain expressing KPC-2, TEM-1); assay: Meropenem potentiation, broth micro-dilution MIC, strain NTBC091.1; format: cell-based; conditions: for MIC mero + 4 µg/mL inhibitor: NTBC091.1, MIC of meropenem with 4 µg/mL of the labelled compound; for MIC of combination with meropenem compared with the combination of meropenem and avibactam: strain NTBC091.1
AmpC = assay: In vitro enzyme inhibition assay (nitrocefin hydrolysis), AmpC; format: biochemical; conditions: nitrocefin 100µM, 10mM HEPES pH 7.5; banded; read-out: Amp-C mean IC50
Procedure: as §1

[3] = system: NTBC093 (E. cloacae strain expressing KPC-2, TEM-1); assay: Meropenem potentiation, broth micro-dilution MIC, strain NTBC093; format: cell-based; conditions: for MIC mero + 4 µg/mL inhibitor: NTBC093, MIC of meropenem with 4 µg/mL of the labelled compound, banded
[4] = system: NTBC189 (K. pneumoniae strain expressing TEM-OSBL(b), CTX-M-14, OXA-48(c)); assay: Meropenem potentiation, broth micro-dilution MIC, strain NTBC189; format: cell-based
[5] = system: clinical strains of Enterobacteriaceae that are resistant to betalactam antibiotics (produce OXA variants of SBL enzymes); assay: Cumulative MIC against large panel of resistant clinical strains (Figure 1); format: cell-based; conditions: at an MIC of 1 µg/mL, Example 10 in combination with meropenem
Text: The data is presented in Figure 1 in the standard cumulative MIC fashion.

[6] = system: NTBC099 (K. pneumoniae strain expressing KPC-3, SHV-11 and TEM-1); assay: microbe, parasite or virus in culture; format: cell-based; conditions: Klebsiella pneumoniae, read-out: MIC mero, µg/mL, no inhibitor
[7] = system: panel of 48 A. baumannii strains that are resistant to betalactam antibiotics (produces OXA variants of SBL enzymes); assay: Cumulative MIC against panel of 48 resistant strains (Figure 2); format: cell-based; conditions: in the presence of 16 µg/mL of each inhibitor, Example 10 in combination with meropenem
Text: The data is presented in Figure 2 in the standard cumulative MIC fashion.

[8] = Klebsiella pneumoniae, read-out: MIC mero, µg/mL, no inhibitor

CTX-M15, sequence (Q9EXV5 29-291, species assumed): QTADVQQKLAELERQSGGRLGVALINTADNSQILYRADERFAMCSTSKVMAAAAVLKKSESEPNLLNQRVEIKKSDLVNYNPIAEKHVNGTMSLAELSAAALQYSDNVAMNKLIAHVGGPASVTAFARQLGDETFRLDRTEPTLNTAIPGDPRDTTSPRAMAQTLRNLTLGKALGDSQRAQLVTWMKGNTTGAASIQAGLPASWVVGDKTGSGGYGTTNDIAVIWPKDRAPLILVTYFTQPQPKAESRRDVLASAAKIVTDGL

Compound	IC50 (AmpC)	MIC mero + 4 µg/mL inhibitor ([2]; banded)	MIC mero + 4 µg/mL inhibitor [3]	also measured
NC(=O)[C@@H]1CC[C@@H]2CN1C(=O)N2OS(=O)(=O)O [Avibactam, avibactam]	–	–	–	MIC mero + 4 µg/mL inhibitor ([1]; NTBC096.1, MIC of meropenem with 4 µg/mL of the labelled compound, numeric): 1(B) µg/mL; IC50 (CTX-M15): 1.4 nM; MIC mero + 4 µg/mL inhibitor ([2]; numeric): 0.06 (A) µg/mL
O=C1N2C[C@@H](CC[C@H]2C(F)(F)F)N1OS(=O)(=O)[O-].[Na+] [Example 1, Sodium (2S, 5R)-7-oxo-2-(trifluoromethyl)-1,6-diazabicyclo[3.2.1]octan-6-yl sulfate]	< 10 nM	(A) (MIC < 1 µg/mL (A))	–	MIC mero + 4 µg/mL inhibitor ([2]; numeric): 0.03 µg/mL; MIC of combination with meropenem compared with the combination of meropenem and avibactam [2]: lower
O=C1N2C[C@@H](CC[C@H]2C(F)F)N1OS(=O)(=O)[O-].[Na+] [Example 2, Sodium (2S, 5R)-7-oxo-2-(difluoromethyl)-1,6-diazabicyclo[3.2.1]octan-6-yl sulfate]	10 to 40 nM	(A) (MIC < 1 µg/mL (A))	–	MIC mero + 4 µg/mL inhibitor ([2]; numeric): 0.03 µg/mL; MIC of combination with meropenem compared with the combination of meropenem and avibactam [2]: lower
O=C1N2C[C@@H](CC[C@H]2C(Cl)Cl)N1OS(=O)(=O)[O-].[Na+] [Example 3, Sodium (2S,5R)-2-(dichloromethyl)-7-oxo-1,6-diazabicyclo[3.2.1]octan-6-yl sulfate]	40 to 60 nM	(A) (MIC < 1 µg/mL (A))	(A) (MIC < 1 µg/mL (A))	–
O=C1N2C[C@@H](CC[C@H]2CF)N1OS(=O)(=O)[O-].[Na+] [Example 4, Sodium (2S, 5R)-2-(fluoromethyl)-7-oxo-1,6-diazabicyclo[3.2.1]octan-6-yl sulphate]	< 10 nM	(A) (MIC < 1 µg/mL (A))	(A) (MIC < 1 µg/mL (A))	–
CC(F)(F)[C@@H]1CC[C@@H]2CN1C(=O)N2OS(=O)(=O)[O-].[Na+] [Example 5, Sodium (2S, 5R)-2-(1,1-difluoroethyl)-7-oxo-1,6-diazabicyclo[3.2.1]octan-6-yl sulphate]	40 to 60 nM	(A) (MIC < 1 µg/mL (A))	(A) (MIC < 1 µg/mL (A))	–
O=C1N2C[C@@H](CC[C@H]2CCl)N1OS(=O)(=O)[O-].[Na+] [Example 6, Sodium (2S, 5R)-2-(chloromethyl)-7-oxo-1,6-diazabicyclo[3.2.1]octan-6-yl sulphate]	10 to 40 nM	(A) (MIC < 1 µg/mL (A))	(A) (MIC < 1 µg/mL (A))	–
O=C1N2C[C@@H](CC[C@H]2SC(F)(F)F)N1OS(=O)(=O)[O-].[Na+] [Example 7, Sodium (2R, 5R)-7-oxo-2-[(trifluoromethyl)sulfanyl]-1,6-diazabicyclo[3.2.1]octan-6-yl sulphate]	40 to 60 nM	(A) (MIC < 1 µg/mL (A))	(B) (MIC = 1 or 2 µg/mL (B))	–
O=C1N2C[C@@H](CC[C@H]2COC(F)(F)F)N1OS(=O)(=O)[O-].[Na+] [Example 8, Sodium (2S, 5R)-7-oxo-2-[(trifluoromethoxy)methyl]-1,6-diazabicyclo[3.2.1]octan-6-yl sulphate]	40 to 60 nM	(A) (MIC < 1 µg/mL (A))	(A) (MIC < 1 µg/mL (A))	–
O=C1N2C[C@@H](CC[C@H]2C(F)(F)c2nccs2)N1OS(=O)(=O)[O-].[Na+] [Example 9, Sodium (2S, 5R)-2-[difluoro(1,3-thiazol-2-yl)methyl]-7-oxo-1,6-diazabicyclo[3.2.1]octan-6-yl sulphate]	< 10 nM	(A) (MIC < 1 µg/mL (A))	(A) (MIC < 1 µg/mL (A))	–
O=C1N2C[C@@H](CC[C@H]2F)N1OS(=O)(=O)[O-].[Na+] [Example 10, Sodium (2R,5R)-2-fluoro-7-oxo-1,6-diazabicyclo[3.2.1]octan-6-yl sulfate]	10 to 40 nM	(A) (MIC < 1 µg/mL (A))	(A) (MIC < 1 µg/mL (A))	MIC of combination with meropenem compared with the combination of meropenem and avibactam ([1]; strain NTBC096.1): lower; MIC of combination with meropenem compared with the combination of meropenem and avibactam ([4]; strain NTBC189): lower; fraction of strains susceptible [5]: over 90%; MIC of combination with meropenem compared with the combination of meropenem and avibactam ([3]; strain NTBC093): similar; MIC of combination with meropenem compared with the combination of meropenem and avibactam [2]: lower
O=C1N2C[C@@H](CC[C@@H]2F)N1OS(=O)(=O)[O-].[Na+] [Example 11, Sodium (2S, 5R)-2-fluoro-7-oxo-1,6-diazabicyclo [3.2.1] octan-6-yl sulfate]	> 60 nM	(A) (MIC < 1 µg/mL (A))	(B) (MIC = 1 or 2 µg/mL (B))	–
O=C1N2C[C@@H](CC[C@H]2Cl)N1OS(=O)(=O)[O-].[Na+] [Example 12, Sodium (2R,5R)-2-chloro-7-oxo-1,6-diazabicyclo[3.2.1]octan-6-yl sulfate]	< 10 nM	(A) (MIC < 1 µg/mL (A))	(A) (MIC < 1 µg/mL (A))	MIC of combination with meropenem compared with the combination of meropenem and avibactam [2]: lower
C[C@@H](O)[C@H]1C(=O)N2C(C(=O)O)=C(S[C@@H]3CN[C@H](C(=O)N(C)C)C3)[C@H](C)[C@H]12 [meropenem, reference compound]	–	–	–	MIC [1, 8]: 32 µg/mL; MIC [4, 8]: 32 µg/mL; fraction of strains susceptible [5]: 0%; MIC [6]: 256 µg/mL (≈ 668 µM); MIC ([3]; Enterobacter cloacae, read-out: MIC mero, µg/mL, no inhibitor): 8 µg/mL; MIC ([2]; Escherichia coli, read-out: MIC mero, µg/mL, no inhibitor): 4 µg/mL; fraction of strains susceptible [7]: less than 10%
